Measured values reported in US20240383898A1, “PYRIDO RING COMPOUND, PREPARATION METHOD THEREFOR, INTERMEDIATE, COMPOSITION, AND APPLICATION” (YIYOU BIOTECH (SHANGHAI) CO., LTD, priority 2021, published 2024).

Key:
JAK1 = biological target: T1, JAK1 (Homo sapiens, UniProt P23458); assay: In vitro activity test of JAK1 kinase (Caliper EZ Reader conversion assay); assay type: biochemical; conditions: enzyme activity, 10 concentrations from 1000 nM, 3-fold dilution
T1 construct: purchased Carna 08-114
Procedure, shortened: (§1)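 JAK1 or JAK2 pre-incubated with compound (top 1000 nM, 3-fold, 10 points, duplicate) for 10 min at room temperature, then ATP plus substrate added. Substrate conversion read by mobility-shift on Caliper EZ Reader after stop solution. Inhibition normalized to no-enzyme and DMSO controls; IC50 from variable-slope four-parameter fit.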

JAK2 = biological target: T2, JAK2 (Homo sapiens, UniProt O60674); assay: In vitro activity test of JAK2 kinase (Caliper EZ Reader conversion assay); assay type: biochemical; conditions: enzyme activity, 10 concentrations from 1000 nM, 3-fold dilution
T2 construct: purchased Carna 08-045
Procedure, shortened: as §1

T2 sequence (O60674 whole entry, species assumed): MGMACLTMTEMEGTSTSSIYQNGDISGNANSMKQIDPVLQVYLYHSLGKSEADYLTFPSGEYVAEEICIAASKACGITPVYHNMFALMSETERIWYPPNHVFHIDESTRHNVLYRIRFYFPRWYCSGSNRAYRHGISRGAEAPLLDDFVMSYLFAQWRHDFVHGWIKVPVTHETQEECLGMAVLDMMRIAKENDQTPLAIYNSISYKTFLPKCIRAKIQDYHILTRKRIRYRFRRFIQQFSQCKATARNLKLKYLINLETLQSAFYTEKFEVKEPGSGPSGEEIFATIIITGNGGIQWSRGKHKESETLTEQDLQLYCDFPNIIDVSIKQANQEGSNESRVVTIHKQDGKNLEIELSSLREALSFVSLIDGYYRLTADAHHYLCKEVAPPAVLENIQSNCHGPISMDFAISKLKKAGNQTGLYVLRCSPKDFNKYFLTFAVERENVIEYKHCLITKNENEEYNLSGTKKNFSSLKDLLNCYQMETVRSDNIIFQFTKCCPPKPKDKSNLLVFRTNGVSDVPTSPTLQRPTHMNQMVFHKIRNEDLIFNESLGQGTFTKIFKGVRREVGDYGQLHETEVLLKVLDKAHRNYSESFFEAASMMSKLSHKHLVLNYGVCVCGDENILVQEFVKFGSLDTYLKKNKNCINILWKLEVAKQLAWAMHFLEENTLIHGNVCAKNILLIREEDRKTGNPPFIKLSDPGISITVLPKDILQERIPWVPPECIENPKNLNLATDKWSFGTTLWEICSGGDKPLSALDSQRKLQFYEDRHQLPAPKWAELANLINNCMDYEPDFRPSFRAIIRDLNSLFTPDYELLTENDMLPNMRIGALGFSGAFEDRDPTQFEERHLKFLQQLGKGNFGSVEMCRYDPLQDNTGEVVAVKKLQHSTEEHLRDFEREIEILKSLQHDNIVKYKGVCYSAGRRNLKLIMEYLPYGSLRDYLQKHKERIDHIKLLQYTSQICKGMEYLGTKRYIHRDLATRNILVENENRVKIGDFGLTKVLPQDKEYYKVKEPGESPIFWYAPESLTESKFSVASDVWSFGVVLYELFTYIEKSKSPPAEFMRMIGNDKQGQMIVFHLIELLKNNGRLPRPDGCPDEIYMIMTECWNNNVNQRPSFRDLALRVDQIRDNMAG
T1 sequence (P23458 whole entry, species assumed): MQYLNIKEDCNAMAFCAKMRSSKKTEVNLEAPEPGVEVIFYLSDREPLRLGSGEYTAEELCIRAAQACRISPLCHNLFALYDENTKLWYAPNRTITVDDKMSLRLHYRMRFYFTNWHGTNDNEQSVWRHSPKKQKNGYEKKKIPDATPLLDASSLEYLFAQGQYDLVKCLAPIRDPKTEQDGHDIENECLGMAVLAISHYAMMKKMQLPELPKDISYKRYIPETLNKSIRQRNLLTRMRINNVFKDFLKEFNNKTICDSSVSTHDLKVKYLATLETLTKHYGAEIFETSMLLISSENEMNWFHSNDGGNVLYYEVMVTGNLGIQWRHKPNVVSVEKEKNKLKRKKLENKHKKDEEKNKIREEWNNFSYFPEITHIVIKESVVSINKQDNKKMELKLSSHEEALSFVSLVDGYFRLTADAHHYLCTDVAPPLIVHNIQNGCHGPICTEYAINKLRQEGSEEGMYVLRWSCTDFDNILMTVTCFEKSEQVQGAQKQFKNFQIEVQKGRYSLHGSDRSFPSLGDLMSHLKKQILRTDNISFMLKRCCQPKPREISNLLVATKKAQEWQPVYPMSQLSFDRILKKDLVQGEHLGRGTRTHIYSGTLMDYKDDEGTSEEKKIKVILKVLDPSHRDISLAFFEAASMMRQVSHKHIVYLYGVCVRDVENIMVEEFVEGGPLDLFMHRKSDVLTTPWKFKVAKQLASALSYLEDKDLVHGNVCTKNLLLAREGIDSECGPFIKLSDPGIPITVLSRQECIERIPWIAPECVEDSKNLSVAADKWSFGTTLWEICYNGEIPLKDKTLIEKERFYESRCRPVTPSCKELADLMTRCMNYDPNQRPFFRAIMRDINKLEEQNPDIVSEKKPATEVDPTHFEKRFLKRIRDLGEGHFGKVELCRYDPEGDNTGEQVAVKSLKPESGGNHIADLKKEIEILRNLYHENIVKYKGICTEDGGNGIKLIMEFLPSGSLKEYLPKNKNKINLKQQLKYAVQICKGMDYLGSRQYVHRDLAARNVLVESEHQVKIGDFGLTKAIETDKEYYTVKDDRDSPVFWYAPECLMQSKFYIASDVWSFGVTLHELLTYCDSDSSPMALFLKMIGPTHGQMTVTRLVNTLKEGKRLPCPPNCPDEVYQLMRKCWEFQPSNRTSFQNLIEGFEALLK

Row | SMILES | IC50 (JAK1) [nM] | IC50 (JAK2) [nM]
1 | Oc1cccc(-c2nc3cnc4[nH]ccc4c3n2[C@H]2CCN(CCCC(F)(F)F)C2)c1 [LXS99, (S)-3-(1-(1-(4,4,4-trifluorobutyl)pyrrolidin-3-yl)-1,6-dihydroimidazo[4,5-d]pyrrolo[2,3-b]pyridin-2-yl)phenol] | 10 to 100 | 10 to 100
2 | C[C@@H](O)c1nc2cnc3[nH]ccc3c2n1[C@H]1CCN(CC(F)(F)C(F)(F)C(F)(F)F)C1 [LXS100, (R)-1-(1-((S)-1-(2,2,3,3,4,4,4-Heptafluorobutyl)pyrrolidin-3-yl)imidazo[4,5-d]pyrrolo[2,3-b]pyridin-2-yl)ethanol] | < 10 | 100 to 1000
3 | C[C@@H](O)c1nc2cnc3[nH]ccc3c2n1[C@H]1CCN(C(F)(F)C(F)(F)C(F)(F)C(F)(F)F)C1 [LXS101, (R)-1-(1-((S)-1-(Perfluoro-butyl)pyrrolidin-3-yl)-1,6-dihydroimidazo[4,5-d]pyrrolo[2,3-b]pyridin-2-yl)ethanol] | < 10 | 100 to 1000
4 | C[C@@H](O)c1nc2cnc3[nH]ccc3c2n1[C@H]1CCN(S(=O)(=O)CCC(F)(F)F)C1 [LXS102, (R)-1-(1-((S)-1-((3,3,3-Trifluoropropyl)sulfonyl)pyrrolidin-3-yl)imidazo[4,5-d]pyrrolo[2,3-b]pyridin-2-yl)ethanol] | < 10 | 100 to 1000
5 | N#CCCCn1cc(-n2cnc3cnc4[nH]ccc4c32)cn1 [LXS103, 4-(4-(imidazo[4,5-d]pyrrolo[2,3-b]pyridin-1(6H)-yl)-1H-pyrazol-1-yl)butanenitrile] | 10 to 100 | 10 to 100
6 | Cc1ccc(-c2nc3cnc4[nH]ccc4c3n2-c2cnn(CCCC#N)c2)o1 [LXS104, 4-(4-(2-(5-methylfuran-2-yl)imidazo[4,5-d]pyrrolo[2,3-b]pyridin-1(6H)-yl)-1H-pyrazol-1-yl)butanenitrile] | 10 to 100 | 10 to 100
7 | Cc1ccc(-c2nc3cnc4[nH]ccc4c3n2-c2cnn(CCCC#N)c2)s1 [LXS105] | 100 to 1000 | 10 to 100
8 | N#CCCn1cc(-n2c(-c3cccs3)nc3cnc4[nH]ccc4c32)cn1 [LXS106, 3-(4-(2-(Thiophen-2-yl)imidazo[4,5-d]pyrrolo[2,3-b]pyridin-1(6H)-yl)-1H-pyrazol-1-yl)propanenitrile] | 100 to 1000 | 10 to 100

Now from value to compound:

Row | IC50 (JAK1) [nM] | IC50 (JAK2) [nM] | SMILES
9 | 100 to 1000 | 10 to 100 | N#CCCCn1cc(-n2c(C3CCC3)nc3cnc4[nH]ccc4c32)cn1 [LXS107, 4-(4-(2-cyclobutylimidazo[4,5-d]pyrrolo[2,3-b]pyridin-1(6H)-yl)-1H-pyrazol-1-yl)butanenitrile]
10 | 100 to 1000 | 10 to 100 | N#CCCCn1cc(-n2c(C3CC3)nc3cnc4[nH]ccc4c32)cn1 [LXS108, 4-(4-(2-cyclopropylimidazo[4,5-d]pyrrolo[2,3-b]pyridin-1(6H)-yl)-1H-pyrazol-1-yl)butanenitrile]
11 | 10 to 100 | 10 to 100 | N#CCN1CCC(n2c(-c3cccc(O)c3)nc3cnc4[nH]ccc4c32)C1 (stereo not shown) [LXSS3, 2-(3-(2-(3-Hydroxyphenyl)imidazo[4,5-d]pyrrolo[2,3-b]pyridin-1(6H)-yl)pyrrolidin-1-yl)acetonitrile]
